Reference: patent US10093678B2, “Azaspiro derivatives as TRPM8 antagonists” (RaQualia Pharma Inc., priority 2014, dated 2018)

Experiments:
[1] = Metabolic stability assay: half-life in human liver microsomes (HLM); type: in vitro ADME
Procedure: Metabolic Stability Assay:
Half-Life in Human Liver Microsomes (HLM)
Test compounds (1 microM) are incubated with 1 mM MgCl2 and 0.78 mg/mL HLM (HL101) or 0.74 mg/mL HLM (Gentest UltraPool 150) or 0.61 mg/mL HLM (XenoTech XTreme 200) in 100 mM potassium phosphate buffer (pH 7.4) at 37° C. on the 96-deep well plate. The reaction mixture is split into two groups, a non-P450 and a P450 groupon necessary. NADPH is only added to the reaction mixture of the P450 group. (NADPH generation system is also used instead of NADPH.) An aliquot of samples of P450 group is collected at 0, 10, 30, and 60 min time point, where 0 min time point indicated the time when NADPH is added into the reaction mixture of P450 group. An aliquot of samples of non-P450 group is collected at −10 and 65 min time point. Collected aliquots are extracted with acetonitrile solution containing an internal standard. The precipitated protein is spun down in centrifuge (2000 rpm, 15 min). The compound concentration in supernatant is measured by LC/MS/MS system.
The half-life value is obtained by plotting the natural logarithm of the peak area ratio of compounds/internal standard versus time. The slope of the line of best fit through the points yield the rate of metabolism (k). This is converted to a half-life value using following equations: Half-life=ln 2/k {Math. 4}

Human HERG = target: T1, Human HERG (Homo sapiens, UniProt Q12809); experiment: Human dofetilide binding assay; details: Human HERG transfected HEK293S cell membranes
T1 construct: expressed in transfected cells; host or cells: HEK293S (membrane homogenate)
T1 sequence (Q12809 whole entry): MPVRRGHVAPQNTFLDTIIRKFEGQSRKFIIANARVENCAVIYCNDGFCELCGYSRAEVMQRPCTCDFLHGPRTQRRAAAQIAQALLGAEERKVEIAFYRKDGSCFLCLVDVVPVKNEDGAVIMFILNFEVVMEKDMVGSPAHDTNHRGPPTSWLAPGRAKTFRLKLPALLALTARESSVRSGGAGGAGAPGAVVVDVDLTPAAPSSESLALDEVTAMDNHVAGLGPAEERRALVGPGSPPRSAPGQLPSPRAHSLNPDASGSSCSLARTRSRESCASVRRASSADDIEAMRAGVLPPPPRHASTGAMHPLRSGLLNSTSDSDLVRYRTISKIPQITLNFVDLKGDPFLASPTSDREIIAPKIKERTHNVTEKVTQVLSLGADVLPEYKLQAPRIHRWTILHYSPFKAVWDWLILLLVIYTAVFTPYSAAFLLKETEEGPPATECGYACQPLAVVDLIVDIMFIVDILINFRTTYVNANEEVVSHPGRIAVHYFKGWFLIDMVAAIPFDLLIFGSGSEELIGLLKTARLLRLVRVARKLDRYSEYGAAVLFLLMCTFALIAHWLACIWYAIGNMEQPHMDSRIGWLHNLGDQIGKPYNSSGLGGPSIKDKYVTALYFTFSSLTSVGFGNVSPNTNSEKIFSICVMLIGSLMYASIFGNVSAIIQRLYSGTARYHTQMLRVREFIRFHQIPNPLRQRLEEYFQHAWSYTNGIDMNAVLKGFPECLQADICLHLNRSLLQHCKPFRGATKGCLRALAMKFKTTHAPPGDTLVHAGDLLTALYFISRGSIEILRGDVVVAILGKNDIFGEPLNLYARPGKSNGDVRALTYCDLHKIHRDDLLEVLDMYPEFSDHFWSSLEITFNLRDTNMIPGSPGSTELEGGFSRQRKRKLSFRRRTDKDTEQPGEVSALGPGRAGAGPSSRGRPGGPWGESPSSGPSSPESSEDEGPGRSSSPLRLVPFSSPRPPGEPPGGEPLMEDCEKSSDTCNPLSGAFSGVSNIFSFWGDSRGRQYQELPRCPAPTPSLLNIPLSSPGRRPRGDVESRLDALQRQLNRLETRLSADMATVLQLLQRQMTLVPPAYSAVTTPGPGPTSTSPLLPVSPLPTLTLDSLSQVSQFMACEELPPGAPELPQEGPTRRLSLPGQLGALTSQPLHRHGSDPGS
Procedure: Human Dofetilide Binding Assay
Human HERG transfected HEK293S cells are prepared and grown in-house. The collected cells are suspended in 50 mM Tris-HCl (pH 7.4 at 4° C.) and homogenized using a hand held Polytron PT 1200 disruptor set at full power for 20 sec on ice. The homogenates are centrifuged at 48,000×g at 4° C. for 20 min. The pellets are then resuspended, homogenized, and centrifuged once more in the same manner. The final pellets are resuspended in an appropriate volume of 50 mM Tris-HCl, 10 mM KCl, 1 mM MgCl2 (pH 7.4 at 4° C.), homogenized, aliquoted and stored at −80° C. until use. An aliquot of membrane fractions is used for protein concentration determination using BCA protein assay kit (PIERCE) and ARVOsx plate reader (Wallac). Binding assays are conducted in a total volume of 30 microL in 384-well plates. The activity is measured by PHERAstar (BMG LABTECH) using fluorescence polarization technology. Ten microL of test compounds are incubated with 10 microL of fluorescence ligand (6 nM Cy3B tagged dofetilide derivative) and 10 microL of membrane homogenate (6 microgram protein) for 120 minutes at room temperature. Nonspecific binding is determined by 10 microM E4031 at the final concentration.

human TRPM8 = target: T2, human TRPM8 (Homo sapiens, UniProt Q7Z2W7); experiment: Menthol-induced Ca2+ influx in HEK293 cells stably expressing human TRPM8; type: cell-based; details: 30 microM menthol-induced Ca2+ influx, read-out: IC50 against TRPM8
T2 construct: expressed in transfected cells; host or cells: HEK293
T2 sequence (Q7Z2W7 whole entry): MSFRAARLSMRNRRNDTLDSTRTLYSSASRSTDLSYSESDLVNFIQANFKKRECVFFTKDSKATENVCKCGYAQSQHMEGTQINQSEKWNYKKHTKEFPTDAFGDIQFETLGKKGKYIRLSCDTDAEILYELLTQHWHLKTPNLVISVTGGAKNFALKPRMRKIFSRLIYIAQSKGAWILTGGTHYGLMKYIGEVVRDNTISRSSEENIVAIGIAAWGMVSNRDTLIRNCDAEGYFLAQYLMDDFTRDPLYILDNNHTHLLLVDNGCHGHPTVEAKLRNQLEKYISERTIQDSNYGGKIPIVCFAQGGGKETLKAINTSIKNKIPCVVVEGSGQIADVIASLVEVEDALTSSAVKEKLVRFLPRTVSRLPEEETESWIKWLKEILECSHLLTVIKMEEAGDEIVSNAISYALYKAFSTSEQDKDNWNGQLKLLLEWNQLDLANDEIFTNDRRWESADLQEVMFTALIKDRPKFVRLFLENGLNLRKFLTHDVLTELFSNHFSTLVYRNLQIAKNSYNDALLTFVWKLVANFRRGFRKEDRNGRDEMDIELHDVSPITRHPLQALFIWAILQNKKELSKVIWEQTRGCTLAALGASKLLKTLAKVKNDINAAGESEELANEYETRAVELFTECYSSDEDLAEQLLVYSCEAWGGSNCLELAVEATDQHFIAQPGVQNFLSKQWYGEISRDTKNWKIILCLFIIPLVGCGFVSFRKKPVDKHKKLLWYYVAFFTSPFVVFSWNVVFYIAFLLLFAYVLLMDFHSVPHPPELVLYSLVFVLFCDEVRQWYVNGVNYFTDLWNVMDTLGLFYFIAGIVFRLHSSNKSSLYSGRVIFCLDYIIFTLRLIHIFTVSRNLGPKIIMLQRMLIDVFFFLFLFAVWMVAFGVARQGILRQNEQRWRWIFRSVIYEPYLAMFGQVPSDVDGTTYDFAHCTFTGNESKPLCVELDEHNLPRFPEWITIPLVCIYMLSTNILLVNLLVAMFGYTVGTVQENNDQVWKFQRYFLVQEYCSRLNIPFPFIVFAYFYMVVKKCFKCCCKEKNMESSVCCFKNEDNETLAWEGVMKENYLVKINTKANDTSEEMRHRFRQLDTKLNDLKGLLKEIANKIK
In short: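 IC50 values were fitted from 11-point dose-response data averaged over duplicate wells. Compound was added for 5 min to Fluo4-loaded HEK293 cells carrying stable human TRPM8, in HBSS/HEPES pH 7.4 with probenecid. Intracellular Ca2+ change after 30 microM menthol addition was then imaged on FDSS.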

IC50 (human TRPM8) [nM]	Structure (SMILES)	other results
–	CC(C)[C@@H]1CC[C@@H](C)C[C@]12NC(=O)C(CC(=O)c1ccccc1)C2=O (stereo partly shown) [closest compound]	CLint scaled at 1 microM ([1]; human, pH 7.4, read-out: intrinsic clearance (CLint)): > 215 mL/min/kg; half-life at 1 microM ([1]; pH 7.4, 1 microM): < 5 min; IC50 (Human HERG): 19000 nM; Ki (Human HERG): 6500 nM
< 100	Cc1ccccc1-c1c(C)cc(C(=O)CN2C(=O)NC3(CCC(F)(F)CC3)C2=O)n1C [Example 16-19]	–
< 100	Cc1nc2cccnc2n1-c1ccc(C(=O)CN2C(=O)NC3(CCCCCC3)C2=O)cc1 [Example 5-32]	–
< 10	O=C(CN1C(=O)NC2(CCC(F)(F)CC2)C1=O)c1ccc(-c2cccc3ccncc23)nc1 [Example 9-12]	–
< 500	O=C(CN1C(=O)NC2(CCC(F)(F)CC2)C1=O)c1ccc(-n2c(C3CC3)nc3cccnc32)cc1 [Example 24-3]	–
< 100	Cc1cc(C(=O)CN2C(=O)NC3(CCC(F)(F)CC3)C2=O)n(C)c1-c1ccccc1CO [Example 16-8]	–
< 100	O=C(CN1C(=O)NC2(CCC(F)(F)CC2)C1=O)c1ccc(-c2cncc3ccccc23)nc1 [Example 9-16]	–
< 500	Cn1cc2c(-c3ccc(C(=O)CN4C(=O)NC5(CCC(F)(F)CC5)C4=O)cc3)cccc2n1 [Example 6-69]	–
< 100	Cc1cc(C(=O)CN2C(=O)NC3(CCCCC3)C2=O)sc1-c1cccnc1 [Example 14-1]	–
< 100	O=C(CN1C(=O)NC2(CCCCCC2)C1=O)c1ccc(Oc2cccnn2)cc1 [Example 5-41]	–
< 100	O=C(CN1C(=O)NC2(CCCCC2)C1=O)c1ccc(-c2ncccc2CO)cc1 [Example 7-7]	–
< 100	Cc1nc(C(=O)CN2C(=O)NC3(CCC(F)(F)CC3)C2=O)sc1-c1cccc(F)c1 [Example 18-5]	–
< 100	N#Cc1ccccc1-c1ccc(C(=O)CN2C(=O)NC3(CCCCC3)C2=O)cn1 [Example 9-8]	–
< 100	Cc1cncc(-n2c(C)cc(C(=O)CN3C(=O)NC4(CCCCC4)C3=O)c2C)c1 [Example 3-11]	–
< 500	Cn1c(C(=O)CN2C(=O)NC3(CCC(F)(F)CC3)C2=O)cnc1-c1ccccc1 [Example 4-11]	–
< 500	Cc1cc(C(=O)CN2C(=O)NC3(CCC(F)(F)CC3)C2=O)sc1-c1cccc(CO)c1 [Example 14-21]	–
< 500	NC(=O)c1cccc(-c2ccc(C(=O)CN3C(=O)NC4(CCC(F)(F)CC4)C3=O)cc2)c1 [Example 6-110]	–
< 100	O=C(CN1C(=O)NC2(CCCCC2)C1=O)c1ccc(-c2cccnc2)nc1 [Example 5-2]	–
< 100	N#Cc1ncccc1-c1ccc(C(=O)CN2C(=O)NC3(CCC(F)(F)CC3)C2=O)cc1 [Example 6-15]	–
< 100	Cc1ccncc1-c1ccc(C(=O)CN2CC3(CCCCC3)OC2=O)cc1 [Example 13-51]	–
< 100	N#Cc1ccnnc1-c1ccc(C(=O)CN2C(=O)NC3(CCC(F)(F)CC3)C2=O)cc1 [Example 6-43]	–
< 100	Cc1nccnc1-c1ccc(C(=O)CN2C(=O)NC3(CCCCC3)C2=O)cc1 [Example 7-14]	–
< 500	Cc1cccc(Oc2ccc(C(=O)CN3C(=O)NC4(CCCCC4)C3=O)cn2)c1 [Example 20-3]	–
< 100	COc1ccncc1-c1sc(C(=O)CN2C(=O)NC3(CCC(F)(F)CC3)C2=O)cc1C [Example 14-16]	–
< 100	O=C(CN1C(=O)NC2(CCC(F)(F)CC2)C1=O)c1ccc(-c2cccnc2CO)c(F)c1 [Example 8-5]	–
< 100	O=C(CN1C(=O)NC2(CCC(F)(F)CC2)C1=O)c1ccc(-c2nccnc2CO)cc1F [Example 8-9]	–
< 100	COc1ccncc1-c1cnc(C(=O)CN2C(=O)NC3(CCC(F)(F)CC3)C2=O)cn1 [Example 12-5]	–
< 100	Cc1nc(C(=O)CN2C(=O)NC3(CCC(F)(F)CC3)C2=O)sc1-c1cccnc1 [Example 18-1]	–
